Drawing on BindingDB's records for doi:10.7270/Q2KK9971 (Nmmlsc, 2009), this text covers EC50 for 59 compounds.

The structures appear in SMILES notation. Bounds are passed on as bounds.

T1 sequence (G3V5T7 whole entry): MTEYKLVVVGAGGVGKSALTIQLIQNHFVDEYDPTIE

The first assay addresses T1, GTPase KRas [1-37] (Homo sapiens, UniProt G3V5T7).
T1 construct: 1-37
Nature of the assay: Ras wild-type GTP-binding inhibitors, SAR follow-up, biochemical, pyrazoline analogs, multiplex bead flow cytometry (AID 2047).
Conditions: not given
On the technique in general: In flow cytometry, cells or beads pass a laser one at a time.
For orientation: EC50 means the concentration that produces a half-maximal response. Lower therefore signals greater potency. In the case of `Cc1onc(-c2ccccc2)c1-c1ccc(S(N)(=O)=O)cc1`, the EC50 was more than 30 µM.

With `O=[N+]([O-])c1ccc([N+]2=N[C-](c3ccccc3)CC2c2ccccc2)cc1` (centres undefined), the EC50 was more than 30 µM.

With `Brc1ccc(N2N=C(c3ccccc3)CC2c2ccccc2)cc1` (centres undefined), the EC50 was more than 30 µM.

Take `COc1ccccc1C1CC(c2ccccc2)=NN1c1ccccc1` (centres undefined): the EC50 is more than 30 µM.

In turn, `Clc1cccc(N2N=C(c3ccccc3)CC2c2ccccc2)c1` (centres undefined) came in with an EC50 of more than 30 µM.

For `Clc1ccc(N2N=C(c3ccccc3)CC2c2ccccc2)cc1` (centres undefined), the EC50 was more than 30 µM.

Turning to `CC(=O)Oc1ccc(C2=NN(c3ccccc3)C(c3ccccc3)C2)cc1` (centres undefined), the EC50 is more than 30 µM.

`O=C(O)c1ccc(N2N=C(c3ccccc3)CC2c2ccccc2)cc1` (centres undefined) yielded an EC50 of more than 30 µM.

Compound `O=S(=O)(c1ccc(N2N=C(c3ccccc3)CC2c2ccccc2)cc1)C(F)F` (centres undefined) returned an EC50 of more than 30 µM.

Take `CCc1ccc(C2=NN(c3ccc(S(N)(=O)=O)cc3)C(c3ccc(F)cc3)C2)cc1` (centres undefined): the EC50 was more than 30 µM.

On to `CN(C)c1ccc(C2C[C-](c3ccccc3)N=[N+]2c2ccc([N+](=O)[O-])cc2)cc1` (centres undefined), for which the EC50 was more than 30 µM.

Consider `COc1ccc(C2CC(c3ccc(F)cc3)=NN2c2cccc(F)c2)cc1OC` (centres undefined), for which the EC50 is more than 30 µM.

In the case of `COc1ccc(C2CC(c3ccc(Cl)cc3)=NN2c2ccc(S(N)(=O)=O)cc2)cc1` (centres undefined), the EC50 was more than 30 µM.

As to `Cc1ccc(C2CC(c3ccccc3)=NN2c2ccc(S(N)(=O)=O)cc2)cc1` (centres undefined), the EC50 is more than 30 µM.

As for `Cc1cccc(C2CC(c3ccccc3)=NN2c2ccc(S(N)(=O)=O)cc2)c1` (centres undefined), the half-maximal effective concentration (EC50) was more than 30 µM.

In turn, `COc1ccc(C2CC(c3ccccc3OC)=NN2c2ccc(S(N)(=O)=O)cc2)cc1` (centres undefined) came in with an EC50 of more than 30 µM.

`COc1ccc(C2CC(c3ccc(C)cc3)=NN2c2ccc(S(N)(=O)=O)cc2)cc1` (centres undefined) yielded an EC50 of more than 30 µM.

`COc1ccc(C2CC(c3cccc(C(F)(F)F)c3)=NN2c2ccc(S(N)(=O)=O)cc2)cc1` (centres undefined) had an EC50 of more than 30 µM.

As to `COc1ccc(C2CC(c3cccc(N(C)C)c3)=NN2c2ccc(S(N)(=O)=O)cc2)cc1` (centres undefined), the EC50 was more than 30 µM.

As for `COc1ccc(C2CC(c3cccnc3)=NN2c2ccc(S(N)(=O)=O)cc2)cc1` (centres undefined), the EC50 was more than 30 µM.

Consider `COc1ccc(C2CC(c3ccncc3)=NN2c2ccc(S(N)(=O)=O)cc2)cc1` (centres undefined), for which the EC50 is more than 30 µM.

On to `Fc1ccccc1C1CC(c2ccc(Br)cc2)=NN1c1ccc(Br)cc1` (centres undefined) [2,5-bis(4-bromophenyl)-3-(2-fluorophenyl)-3,4-dihydropyrazole], for which the EC50 is more than 30 µM.

The compound `COc1ccc(C2CC(c3ccc(F)cc3)=NN2c2cc(Cl)ccc2Cl)cc1` (centres undefined) [2-(2,5-dichlorophenyl)-5-(4-fluorophenyl)-3-(4-methoxyphenyl)-3,4-dihydropyrazole] yielded a half-maximal effective concentration (EC50) of more than 30 µM.

In the case of `COc1ccc(C2=NN(c3ccc(Cl)c(Cl)c3)C(c3ccc(OC)cc3)C2)cc1` (centres undefined) [2-(3,4-dichlorophenyl)-3,5-bis(4-methoxyphenyl)-3,4-dihydropyrazole], the EC50 is more than 30 µM.

Compound `Fc1ccc(C2=NN(c3cccc(Br)c3)C(c3ccccc3)C2)cc1` (centres undefined) [2-(3-bromophenyl)-5-(4-fluorophenyl)-3-phenyl-3,4-dihydropyrazole] had a 50% effective concentration (EC50) of more than 30 µM.

The compound `COc1ccc(C2=NN(c3cccc(F)c3)C(c3ccc(OC)cc3)C2)cc1` (centres undefined) [2-(3-fluorophenyl)-3,5-bis(4-methoxyphenyl)-3,4-dihydropyrazole] gave an EC50 of more than 30 µM.

In turn, `COc1ccc(C2CC(c3ccccc3)=NN2c2ccc(Cl)c(C(=O)O)c2)cc1OC` (centres undefined) [2-chloro-5-[3-(3,4-dimethoxyphenyl)-5-phenyl-3,4-dihydropyrazol-2-yl]benzoic acid] yielded an EC50 of more than 30 µM.

Take `COc1ccc(C2=NN(c3cccc(F)c3)C(c3ccc(Cl)cc3)C2)cc1` (centres undefined) [3-(4-chlorophenyl)-2-(3-fluorophenyl)-5-(4-methoxyphenyl)-3,4-dihydropyrazole]: the concentration giving a half-maximal response (EC50) is more than 30 µM.

Compound `COc1ccc(C2C[C-](c3ccccc3)N=[N+]2c2ccc([N+](=O)[O-])cc2)cc1` (centres undefined) [3-(4-methoxyphenyl)-2-(4-nitrophenyl)-5-phenyl-3,4-dihydropyrazole] displayed an EC50 of more than 30 µM.

Compound `COc1ccc(C2CC(c3ccccc3)=NN2c2cccc(S(N)(=O)=O)c2)cc1` (centres undefined) [3-[3-(4-methoxyphenyl)-5-phenyl-3,4-dihydropyrazol-2-yl]benzenesulfonamide] gave an EC50 of more than 30 µM.

On to `NS(=O)(=O)c1ccc(N2N=C(c3ccccc3)CC2c2ccccc2)cc1` (centres undefined) [4-(3,5-diphenyl-3,4-dihydropyrazol-2-yl)benzenesulfonamide], for which the EC50 is more than 30 µM.

For the compound `COc1ccc(C2=NN(c3ccc(S(N)(=O)=O)cc3)C(c3ccc(OC)cc3)C2)cc1` (centres undefined) [4-[3,5-bis(4-methoxyphenyl)-3,4-dihydropyrazol-2-yl]benzenesulfonamide], the EC50 is more than 30 µM.

For `NS(=O)(=O)c1ccc(N2N=C(c3ccccc3)CC2c2ccccc2Br)cc1` (centres undefined) [4-[3-(2-bromophenyl)-5-phenyl-3,4-dihydropyrazol-2-yl]benzenesulfonamide], the EC50 is more than 30 µM.

Turning to `COc1ccccc1C1CC(c2ccccc2)=NN1c1ccc(S(N)(=O)=O)cc1` (centres undefined) [4-[3-(2-methoxyphenyl)-5-phenyl-3,4-dihydropyrazol-2-yl]benzenesulfonamide], the concentration giving a half-maximal response (EC50) was more than 30 µM.

Compound `COc1cccc(C2CC(c3ccccc3)=NN2c2ccc(S(N)(=O)=O)cc2)c1` (centres undefined) [4-[3-(3-methoxyphenyl)-5-phenyl-3,4-dihydropyrazol-2-yl]benzenesulfonamide] displayed an EC50 of more than 30 µM.

The compound `NS(=O)(=O)c1ccc(N2N=C(c3ccccc3)CC2c2ccc(Cl)cc2)cc1` (centres undefined) [4-[3-(4-chlorophenyl)-5-phenyl-3,4-dihydropyrazol-2-yl]benzenesulfonamide] had an EC50 of more than 30 µM.

`COc1ccc(C2CC(c3ccc(C(F)(F)F)cc3)=NN2c2ccc(S(N)(=O)=O)cc2)cc1` (centres undefined) [4-[3-(4-methoxyphenyl)-5-[4-(trifluoromethyl)phenyl]-3,4-dihydropyrazol-2-yl]benzenesulfonamide] came in with an EC50 of more than 30 µM.

Compound `COc1ccc(C2CC(C)=NN2c2ccc(S(N)(=O)=O)cc2)cc1` (centres undefined) [4-[3-(4-methoxyphenyl)-5-methyl-3,4-dihydropyrazol-2-yl]benzenesulfonamide] had an EC50 of more than 30 µM.

Turning to `COc1ccc(C2CC(c3ccsc3)=NN2c2ccc(S(N)(=O)=O)cc2)cc1` (centres undefined) [4-[3-(4-methoxyphenyl)-5-thiophen-3-yl-3,4-dihydropyrazol-2-yl]benzenesulfonamide], the EC50 was more than 30 µM.

`COc1ccc(C2CC(c3ccccc3Cl)=NN2c2ccc(S(N)(=O)=O)cc2)cc1` (centres undefined) [4-[5-(2-chlorophenyl)-3-(4-methoxyphenyl)-3,4-dihydropyrazol-2-yl]benzenesulfonamide] had an EC50 of more than 30 µM.

For the compound `COc1ccc(C2CC(c3cccc(F)c3)=NN2c2ccc(S(N)(=O)=O)cc2)cc1` (centres undefined) [4-[5-(3-fluorophenyl)-3-(4-methoxyphenyl)-3,4-dihydropyrazol-2-yl]benzenesulfonamide], the EC50 is more than 30 µM.

`COc1ccc(C2CC(c3cccc(OC)c3)=NN2c2ccc(S(N)(=O)=O)cc2)cc1` (centres undefined) [4-[5-(3-methoxyphenyl)-3-(4-methoxyphenyl)-3,4-dihydropyrazol-2-yl]benzenesulfonamide] came in with an EC50 of more than 30 µM.

In turn, `NS(=O)(=O)c1ccc(N2N=C(c3ccc(Br)cc3)CC2c2ccc(F)cc2)cc1` (centres undefined) [4-[5-(4-bromophenyl)-3-(4-fluorophenyl)-3,4-dihydropyrazol-2-yl]benzenesulfonamide] registered an EC50 of more than 30 µM.

`COc1ccc(-c2cc(-c3ccccc3)nn2-c2ccc(S(N)(=O)=O)cc2)cc1` [4-[5-(4-methoxyphenyl)-3-phenylpyrazol-1-yl]benzenesulfonamide] had an EC50 of more than 30 µM.

As to `COc1ccc(C2CC(C3CCCCC3)=NN2c2ccc(S(N)(=O)=O)cc2)cc1` (centres undefined) [4-[5-cyclohexyl-3-(4-methoxyphenyl)-3,4-dihydropyrazol-2-yl]benzenesulfonamide], the half-maximal effective concentration (EC50) was more than 30 µM.

As to `O=S(=O)(c1ccc(N2N=C(c3ccc(Br)cc3)CC2c2ccccc2)cc1)C(F)F` (centres undefined) [5-(4-bromophenyl)-2-[4-(difluoromethylsulfonyl)phenyl]-3-phenyl-3,4-dihydropyrazole], the concentration giving a half-maximal response (EC50) was more than 30 µM.

For the compound `FC(F)(F)c1ccccc1C1CC(c2ccc(Br)cc2)=NN1c1ccccc1` (centres undefined) [5-(4-bromophenyl)-2-phenyl-3-[2-(trifluoromethyl)phenyl]-3,4-dihydropyrazole], the EC50 was more than 30 µM.

Compound `O=[N+]([O-])c1cccc(C2C[C-](c3ccc(F)cc3)N=[N+]2c2ccccc2)c1` (centres undefined) [5-(4-fluorophenyl)-3-(3-nitrophenyl)-2-phenyl-3,4-dihydropyrazole] registered an EC50 of more than 30 µM.

Turning to `Cc1ccc(-c2cc(C(F)(F)F)nn2-c2ccc(S(N)(=O)=O)cc2)cc1` [Celecoxib], the EC50 was more than 30 µM.

Compound `COc1ccc(C2CC(c3ccc(N(C)C)cc3)=NN2c2ccc(S(N)(=O)=O)cc2)cc1` (centres undefined) [KUC103422N] showed an EC50 of more than 30 µM.

The compound `COc1ccc(C2CC(c3cccs3)=NN2c2ccc(S(N)(=O)=O)cc2)cc1` (centres undefined) [KUC103438N] showed an EC50 of more than 30 µM.

In the case of `NS(=O)(=O)c1ccc(N2N=C(c3ccccc3)CC2c2ccccc2Cl)cc1` (centres undefined) [KUC103446N], the EC50 is more than 30 µM.

Take `COc1ccc(C2CC(C(C)(C)C)=NN2c2ccc(S(N)(=O)=O)cc2)cc1` (centres undefined) [KUC103450N]: the half-maximal effective concentration (EC50) was more than 30 µM.

In turn, `COc1ccc(C2CC(c3ccccc3C(F)(F)F)=NN2c2ccc(S(N)(=O)=O)cc2)cc1` (centres undefined) [KUC103474N] gave an EC50 of more than 30 µM.

Staying with this assay, now noted: inactive by the depositor's call.
Regarding `COc1ccc(C2=NN(c3ccccc3)C(c3ccccc3C(F)(F)F)C2)cc1` (centres undefined), the concentration giving a half-maximal response (EC50) stood at 17.7 µM.

Take `NS(=O)(=O)c1ccc(N2N=C(c3ccc(Cl)cc3)CC2c2ccccc2)cc1` (centres undefined): the response was half-maximal at 0.096 µM (EC50).

As to `COc1ccc(C2CC(c3ccccc3)=NN2c2ccc(Cl)c(C(=O)O)c2)cc1` (centres undefined), a half-maximal effect (EC50) was put at 1.03 µM.

Regarding `CN(C)c1ccc(C2CC(c3ccccc3)=NN2c2ccccc2)cc1` (centres undefined) [4-(2,5-diphenyl-3,4-dihydropyrazol-3-yl)-N,N-dimethylaniline], a half-maximal effect (EC50) was put at 0.049 µM.

Consider `COc1ccc(C2CC(c3ccc(F)cc3)=NN2c2ccc(S(N)(=O)=O)cc2)cc1` (centres undefined) [4-[5-(4-fluorophenyl)-3-(4-methoxyphenyl)-3,4-dihydropyrazol-2-yl]benzenesulfonamide], for which the half-maximal effective concentration (EC50) stood at 0.028 µM.
